Reference: patent US11149035B2, “Chemical compounds as H—PGDS inhibitors” (GlaxoSmithKline Intellectual Property Development Limited, priority 2017, dated 2021)

Each molecule was assayed against T1, haematopoietic prostaglandin D synthase (H-PGDS) (Homo sapiens, UniProt O60760) (assay: H-PGDS RapidFire high throughput mass spectrometry assay (conversion of PGH2 to PGD2)). Settings: 10 nM H-PGDS, PGH2 formed in situ by COX-2 from arachidonic acid; four parameter curve fit; read-out: Potency Range (mean pIC50) (converted).
T1 construct: Full length human H-PGDS cDNA (Invitrogen Ultimate ORF IOH13026) was amplified by PCR; 6-His (N); TEV protease cleavage site (N); made in house; host or cells: E. coli BL21 (DE3*)
Type: biochemical
Experimental: The H-PGDS RapidFire™ mass spectrometric assay monitors conversion of prostaglandin H2 (PGH2) to prostaglandin D2 (PGD2) by haematopoietic prostaglandin D synthase (H-PGDS). In the assay format described here, the substrate (PGH2) is formed in situ by the action of cyclooxygenase-2 on arachidonic acid. This first step is set up to be fast, and generates a burst of PGH2 at ˜10 μM. The PGH2 is then further converted to PGD2 by the H-PGDS enzyme. […] Plates are then read on the RapidFire™ high throughput solid phase extraction system (Agilent) which incorporates a solid phase extraction step coupled to a triple quadrupole mass spectrometer (AB SCIEX). Relative levels of PGD2 and PGF2α, which acts as a surrogate for substrate, are measured and a percent conversion calculated. Inhibitors are characterised as compounds which lower the conversion of PGH2 to PGD2.
Full length human H-PGDS cDNA (Invitrogen Ultimate ORF IOH13026) was amplified by PCR with the addition of a 5′ 6-His tag and TEV protease cleavage site. The PCR product was digested with NdeI and XhoI and ligated into pET22b+ (Merck Novagen®). Expression was carried out in E. coli strain BL21 (DE3*) using auto-induction Overnight Express™ Instant TB medium (Merck Novagen®) supplemented with 1% glycerol. The culture was first grown at 37° C. and the temperature was reduced to 25° C. when OD600 reached 2.0. Cells were harvested by centrifugation after a further 18 hours. 10 g of E. coli cell pellet was suspended to a total volume of 80 mL in lysis buffer (20 mM Tris-Cl pH 7.5, 300 mM NaCl, 20 mM imidazole, 5 mM β-mercaptoethanol, 10% glycerol). 1 mg/mL protease inhibitors (Protease Inhibitor Cocktail Set III, Merck Calbiochem®) and 1 mg/mL lysozyme were added to the cell suspension. The suspension was then sonicated for 5 min (UltraSonic Processor VCX 750, Cole-Parmer Instrument Co.) with a micro probe (50% amplitude, 10 sec on/off) and then centrifuged at 100,000 g for 90 minutes (at 4° C.). The supernatant was loaded onto a Ni-NTA HiTrap column (5 mL, GE Healthcare, pre-equilibrated in lysis buffer). The column was washed with 10 column volumes of lysis buffer and eluted with lysis buffer containing 500 mM imidazole. The pooled protein peak fractions were concentrated using a 10 kDa centrifugal filter at 3500 g and 4° C. (Amicon Ultra-15 centrifugal filter unit with Ultracel-10 membrane from Millipore). Further purification of the concentrated protein was carried out using gel filtration chromatography on a HiLoad 26/600 Superdex 75 preparative grade column (GE Healthcare Life Sciences) using 50 mM Tris pH 7.5, 50 mM NaCl, 1 mM dithiothreitol, 1 mM MgCl2. Fractions containing the protein were pooled, concentrated as described above, and stored at −80° C.
The full length human COX-2 gene (accession number L15326) was amplified by PCR to generate an EcoRI—HindIII fragment containing an in-frame FLAG tag. This was subcloned into pFastBac 1 (Invitrogen). The COX-2 FLAG plasmid was recombined into the baculovirus genome according to the BAC-to-BAC protocol described by Invitrogen. Transfection into Spodoptera frugiperda (Sf9) insect cells was performed using Cellfectin (Invitrogen), according to the manufacturer's protocol. Super Sf9 cells were cultured in EX420 media (SAFC Biosciences) to a density of approximately 1.5×10^6 cells/mL within a wave bioreactor. Recombinant virus was added at a Multiplicity of Infection (MOI) of 5 and the culture was allowed to continue for 3 days. Cells were harvested using a continuous feed centrifuge run at 2500 g at a rate of approximately 2 L/min with cooling. The resultant cell slurry was re-centrifuged in pots (2500 g, 20 min, 4° C.) and the cell paste was stored at −80° C. 342 g of cell paste was re-suspended to a final volume of 1600 mL in a buffer of 20 mM Tris-Cl pH 7.4, 150 mM NaCl, 0.1 mM EDTA, 1.3% w/v n-octyl-[…] containing 20 Complete EDTA-free Protease Inhibitor Cocktail tablets (Roche Applied Science). […]

T1 sequence (O60760 whole entry): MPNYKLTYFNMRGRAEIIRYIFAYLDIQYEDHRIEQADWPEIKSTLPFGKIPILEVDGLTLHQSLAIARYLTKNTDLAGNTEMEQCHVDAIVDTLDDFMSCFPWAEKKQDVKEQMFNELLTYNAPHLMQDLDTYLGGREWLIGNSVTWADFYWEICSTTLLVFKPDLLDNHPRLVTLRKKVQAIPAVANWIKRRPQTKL

First: CSc1ncc2cc(C(=O)N[C@H]3CC[C@H](C(C)(C)O)CC3)cnc2n1 [Example 70, N-(trans-4-(2-Hydroxypropan-2-yl)cyclohexyl)-2-(methylthio)pyrido[2,3-d]pyrimidine-6-carboxamide]
Second: CC(C)(O)[C@H]1CC[C@H](NC(=O)c2cnc3nc(N4CCC4)ncc3c2)CC1 [Example 79, 2-(Azetidin-1-yl)-N-((trans)-4-(2-hydroxypropan-2-yl)cyclohexyl)pyrido[2,3-d]pyrimidine-6-carboxamide]
The IC50 of the first is lower: under 10 nM for the first, 10 to 79.4 nM for the second.

`C[C@H]1CCN1c1nc2ncc(C(=O)N[C@H]3C[C@](C)(O)C3)cc2cc1Cl` [Example 64, 6-Chloro-N-((1r,3S)-3-hydroxy-3-methylcyclobutyl)-7-((S)-2-methylazetidin-1-yl)-1,8-naphthyridine-3-carboxamide] and `C[C@H]1CCN1c1nc2ncc(C(=O)NC3CC4(C3)CC(C(C)(C)O)C4)cc2cc1Cl` (stereo partly drawn) [Example 61, (S)-6-Chloro-N-(6-(2-hydroxypropan-2-yl)spiro[3.3]heptan-2-yl)-7-(2-methylazetidin-1-yl)-1,8-naphthyridine-3-carboxamide] cannot be ordered by IC50: under 10 nM for the first, under 10 nM for the second.

`C[C@H]1CCN1c1cc2ncc(C(=O)NC3CCN(C(=O)C(C)(C)O)CC3)cc2cn1` [Example 24, (S)—N-(1-(2-Hydroxy-2-methylpropanoyl)piperidin-4-yl)-7-(2-methylazetidin-1-yl)-1,6-naphthyridine-3-carboxamide] and `C[C@H]1CCN1c1cc2ncc(C(=O)N[C@H]3CCNC3=O)cc2cn1` [Example 22, 7-((S)-2-Methylazetidin-1-yl)-N—((S)-2-oxopyrrolidin-3-yl)-1,6-naphthyridine-3-carboxamide] fall in the same range of IC50: 10 to 79.4 nM for the first, 10 to 79.4 nM for the second.

`CC(N[C@H]1CC[C@H](NC(=O)c2cnc3nc(C4CC4)ccc3c2)CC1)C(F)F` (mixture of isomers) [Example 57, 7-Cyclopropyl-N-(trans-4-((1,1-difluoropropan-2-yl)amino)cyclohexyl)-1,8-naphthyridine-3-carboxamide] and `O=C(N[C@H]1CC[C@H](N2CC(F)(F)C2)CC1)c1cnc2nc(C3CC3)ccc2c1` [Example 54, 7-Cyclopropyl-N-(trans-4-(3,3-difluoroazetidin-1-yl)cyclohexyl)-1,8-naphthyridine-3-carboxamide] fall in the same range of IC50: 10 to 79.4 nM for the first, 10 to 79.4 nM for the second.

Compared with `C[C@@H]1CCN1c1ccc2cc(C(=O)N[C@H]3CC[C@H](C(C)(C)O)CC3)cnc2n1` [Example 8, N-(trans-4-(2-Hydroxypropan-2-yl)cyclohexyl)-7-((R)-2-methylazetidin-1-yl)-1,8-naphthyridine-3-carboxamide], `C[C@H]1CCN1c1ccc2cc(C(=O)N[C@H]3CC[C@H](C(C)(C)O)CC3)cnc2n1` [Example 9, N-(trans-4-(2-Hydroxypropan-2-yl)cyclohexyl)-7-((S)-2-methylazetidin-1-yl)-1,8-naphthyridine-3-carboxamide] is lower in IC50: 100 to 1000 nM for the first, under 10 nM for the second.

`CC(C)(O)[C@H]1CC[C@H](NC(=O)c2cnc3cc(NC4CC4)ncc3c2)CC1` [Example 14, 7-(Cyclopropylamino)-N-(trans-4-(2-hydroxypropan-2-yl)cyclohexyl)-1,6-naphthyridine-3-carboxamide] and `CC(C)(O)[C@H]1CC[C@H](NC(=O)c2cnc3cc(C4CC4)ncc3c2)CC1` [Example 10, 7-Cyclopropyl-N-((trans)-4-(2-hydroxypropan-2-yl)cyclohexyl)-1,6-naphthyridine-3-carboxamide] fall in the same range of IC50: 10 to 79.4 nM for the first, 10 to 79.4 nM for the second.

First: C[C@]1(O)C[C@H](NC(=O)c2cnc3nc(C4CC4)ccc3c2)C1 [Example 46, 7-Cyclopropyl-N-((1r,3s)-3-hydroxy-3-methylcyclobutyl)-1,8-naphthyridine-3-carboxamide]
Second: O=C(N[C@H]1C[C@H](N[C@H](CO)C(F)(F)F)C1)c1cnc2nc(C3CC3)ccc2c1 [Example 69, 7-Cyclopropyl-N-(trans-3-(((R)-1,1,1-trifluoro-3-hydroxypropan-2-yl)amino)cyclobutyl)-1,8-naphthyridine-3-carboxamide]
The IC50 of the first is higher: 100 to 1000 nM for the first, 10 to 79.4 nM for the second.

First: CC(C)(O)[C@H]1CC[C@H](NC(=O)c2cnc3nc(N4CCC4)ccc3c2)CC1 [Example 5, 7-(Azetidin-1-yl)-N-(trans-4-(2-hydroxypropan-2-yl)cyclohexyl)-1,8-naphthyridine-3-carboxamide]
Second: CC(C)(O)[C@H]1CC[C@H](NC(=O)c2cnc3nc(N4CC(F)C4)ccc3c2)CC1 [Example 6, 7-(3-Fluoroazetidin-1-yl)-N-(trans-4-(2-hydroxypropan-2-yl)cyclohexyl)-1,8-naphthyridine-3-carboxamide]
The IC50 of the first is lower: under 10 nM for the first, 10 to 79.4 nM for the second.

First: O=C(N[C@H]1CC[C@H](N[C@H](CO)C(F)(F)F)CC1)c1cnc2cc(C3CC3)ncc2c1 [Example 37, 7-Cyclopropyl-N-((trans)-4-(((R)-1,1,1-trifluoro-3-hydroxypropan-2-yl)amino)cyclohexyl)-1,6-naphthyridine-3-carboxamide]
Second: O=C(N[C@H]1C[C@@H](N[C@H](CO)C(F)(F)F)C1)c1cnc2cc(C3CC3)ncc2c1 [Example 42, 7-Cyclopropyl-N-(cis-3-(((R)-1,1,1-trifluoro-3-hydroxypropan-2-yl)amino)cyclobutyl)-1,6-naphthyridine-3-carboxamide]
The IC50 of the first is lower: 10 to 79.4 nM for the first, 100 to 1000 nM for the second.

`O=C(N[C@H]1CC[C@H](N2CC(F)C2)CC1)c1cnc2cc(C3CC3)ncc2c1` [Example 35, 7-Cyclopropyl-N-(trans-4-(3-fluoroazetidin-1-yl)cyclohexyl)-1,6-naphthyridine-3-carboxamide] and `CC(C)(O)[C@H]1CC[C@H](NC(=O)c2cnc3cc(N4CC(F)C4)ncc3c2)CC1` [Example 3, 7-(3-Fluoroazetidin-1-yl)-N-(trans-4-(2-hydroxypropan-2-yl)cyclohexyl)-1,6-naphthyridine-3-carboxamide] fall in the same range of IC50: 10 to 79.4 nM for the first, 10 to 79.4 nM for the second.

Compared with `CC(C)(O)[C@H]1CC[C@H](NC(=O)c2cnc3nc(NCC(F)F)ccc3c2)CC1` [Example 16, 7-((2,2-Difluoroethyl)amino)-N-(trans-4-(2-hydroxypropan-2-yl)cyclohexyl)-1,8-naphthyridine-3-carboxamide], `CC(C)(O)[C@H]1CC[C@H](NC(=O)c2cnc3nc(C4CC4)c(Cl)cc3c2)CC1` [Example 27, 6-Chloro-7-cyclopropyl-N-((trans)-4-(2-hydroxypropan-2-yl)cyclohexyl)-1,8-naphthyridine-3-carboxamide] is lower in IC50: 100 to 1000 nM for the first, under 10 nM for the second.

`C[C@H]1CCN1c1nc2ncc(C(=O)N[C@H]3C[C@H](C(C)(C)O)C3)cc2cc1Cl` [Example 65, 6-Chloro-N-(trans-3-(2-hydroxypropan-2-yl)cyclobutyl)-7-((S)-2-methylazetidin-1-yl)-1,8-naphthyridine-3-carboxamide] and `C[C@H]1CCN1c1nc2ncc(C(=O)N[C@H]3CCNC3=O)cc2cc1Cl` [Example 60, 6-Chloro-7-((S)-2-methylazetidin-1-yl)-N—((S)-2-oxopyrrolidin-3-yl)-1,8-naphthyridine-3-carboxamide] cannot be ordered by IC50: under 10 nM for the first, under 10 nM for the second.

In the case of `C[C@H]1CCN1c1cc2ncc(C(=O)N[C@@H]3C(=O)NCC3(C)C)cc2cn1` [Example 78, N—((S)-4,4-Dimethyl-2-oxopyrrolidin-3-yl)-7-((S)-2-methylazetidin-1-yl)-1,6-naphthyridine-3-carboxamide], the IC50 is reported as 100 to 1000 nM.
